Laboratory results reported in ChEMBL document CHEMBL5032498, “Discovery of Potent and Broad-Spectrum Pyrazolopyridine-Containing Antivirals against Enteroviruses D68, A71, and Coxsackievirus B3 by Targeting the Viral 2C Protein” (J Med Chem, 2021).

Assays:
[1] = Cytotoxicity against Enterovirus A71 Tainan/4643/1998 infected human RD cells incubated for 3 days by neutral red uptake method; format: functional; settings: Rhabdomyosarcoma cell, 72 h, time 3 day
[2] = Cytotoxicity against human RD cells incubated for 3 days by neutral red uptake method; format: cell-based, Rhabdomyosarcoma cell; settings: time 3 day
[3] = Selectivity index, ratio of CC50 for human RD cells to EC50 for Enterovirus D68 US/KY/14-18953 in human RD cells; format: toxicity, cell-based; settings: read-out: Ratio CC50/EC50
enterovirus D68 [4] = assay: Anti-viral activity against Enterovirus D68 US/KY/14-18953 infected in human RD cells assessed as reduction in virus induced cytopathic effect incubated for 3 days by CPE assay; format: functional, organism-based; settings: Enterovirus D, US/KY/14-18953, RD, 72 h
enterovirus D68 [5] = assay: Anti-viral activity against Enterovirus D68 US/MO/14-18947 infected in human RD cells assessed as reduction in virus induced cytopathic effect incubated for 3 days by CPE assay; format: functional, organism-based; settings: Enterovirus D, US/MO/14-18947, RD, 72 h
[6] = Selectivity index, ratio of CC50 for african green monkey Vero cells to EC50 for Coxsackievirus B3 in green monkey Vero cells; format: toxicity, cell-based; settings: read-out: Ratio CC50/EC50
[7] = Selectivity index, ratio of CC50 for human RD cells to EC50 for Enterovirus A71 Tainan/4643/1998 in human RD cells; format: toxicity, cell-based; settings: read-out: Ratio CC50/EC50
enterovirus D68 [8] = assay: Anti-viral activity against Enterovirus D68 US/IL/14-18956 infected in human RD cells assessed as reduction in virus induced cytopathic effect incubated for 3 days by CPE assay; format: functional, organism-based; settings: Enterovirus D, US/IL/14-18956, RD, 72 h
Coxsackievirus B3 = assay: Anti-viral activity against Coxsackievirus B3 infected in green monkey Vero cells assessed as reduction in virus induced cytopathic effect incubated for 3 days by CPE assay; format: functional, organism-based; settings: Enterovirus B, 72 h
[9] = Cytotoxicity against Enterovirus D68 US/MO/14-18947 infected human RD cells incubated for 3 days by neutral red uptake method; format: functional; settings: Rhabdomyosarcoma cell, 72 h, pooled result: one value given for 4 cell lines, strains, targets or settings, time 3 day
[10] = Cytotoxicity against Enterovirus A71 MP4 infected human RD cells incubated for 3 days by neutral red uptake method; format: functional; settings: Rhabdomyosarcoma cell, 72 h, time 3 day
enterovirus D68 [11] = assay: Anti-viral activity against Enterovirus D68 US/MO/14-18947 infected in human RD cells assessed as inhibition of plaque formation incubated for 3 days by plaque assay based crystal violet staining analysis; format: functional, organism-based; settings: Enterovirus D, US/MO/14-18947, RD, 72 h
enterovirus D68 [12] = assay: Anti-viral activity against Enterovirus D68 US/IL/14-18952 infected in human RD cells assessed as reduction in virus induced cytopathic effect incubated for 3 days by CPE assay; format: functional, organism-based; settings: Enterovirus D, US/IL/14-18952, RD, 72 h
enterovirus D68 [13] = assay: Anti-viral activity against Enterovirus D68 US/MO/14-18949 infected in human RD cells assessed as reduction in virus induced cytopathic effect incubated for 3 days by CPE assay; format: functional, organism-based; settings: Enterovirus D, US/MO/14-18949, RD, 72 h
Enterovirus A71 [14] = assay: Anti-viral activity against Enterovirus A71 Tainan/4643/1998 infected in human RD cells assessed as reduction in virus induced cytopathic effect incubated for 3 days by CPE assay; format: functional, organism-based; settings: Enterovirus A, Tainan/4643/1998, RD, 72 h
Enterovirus = assay: Anti-viral activity against Enterovirus D68 US/MO/14-18947 infected in human SH-SY5Y cells assessed as inhibition of virus replication by immunofluorescence staining using anti-VPI antibody; format: functional, organism-based; settings: D68 US/MO/14-18947, SH-SY5Y
[15] = Cytotoxicity against Enterovirus D68 US/IL/14-18952 infected human RD cells incubated for 3 days by neutral red uptake method; format: functional; settings: Rhabdomyosarcoma cell, 72 h, time 3 day
enterovirus D68 [16] = assay: Antiviral activity against Enterovirus D68 US/MO/14-18947 harboring 2C protein D183V/D323G drug resistant mutant by CPE assay followed by viral 2C gene sequencing; format: functional, organism-based; settings: Enterovirus D
Enterovirus A71 [17] = assay: Anti-viral activity against Enterovirus A71 MP4 infected in human RD cells assessed as reduction in virus induced cytopathic effect incubated for 3 days by CPE assay; format: functional, organism-based; settings: Enterovirus A, 72 h
[18] = Selectivity index, ratio of CC50 for human RD cells to EC50 for Enterovirus A71 USA/CT/2016-19519 infected in human RD cells; format: toxicity, cell-based; settings: read-out: Ratio CC50/EC50
[19] = Selectivity index, ratio of CC50 for human RD cells to EC50 for Enterovirus A71 MP4 in human RD cells; format: toxicity, cell-based; settings: read-out: Ratio CC50/EC50

## CNCCNC(=O)c1cc(C2CC2)nc2c1c(C)nn2C(C)(C)C
[1]
  CC50: 31.9 µM

## CNCCCNC(=O)c1cc(C2CC2)nc2c1cnn2C(C)C
[2]
  CC50 at 72 h: 183 µM

## CCC(C)n1ncc2c(C(=O)NCCN(C)C)cc(C3CC3)nc21 (centres undefined)
[1]
  CC50: 40.7 µM

## CC(C)n1ncc2c(C(=O)Nc3ccccn3)cc(-c3cccs3)nc21
[3]
  selectivity ratio: > 250
Enterovirus D68 [4]
  EC50: 0.2 µM
Enterovirus D68 [5]
  EC50: 0.1 µM
[2]
  CC50 at 72 h: > 50 µM

## Cc1cc(C(=O)NC2CN(C)C2)c2cnn(C(C)C)c2n1
[6]
  selectivity ratio: > 78.9
[3]
  selectivity ratio: > 26.5
[7]
  selectivity ratio: > 41.1

## COCCNC(=O)c1cc(C2CC2)nc2c1cnn2C(C)C
[2]
  CC50 at 72 h: 178 µM

## CC(CN(C)C)NC(=O)c1cc(C(C)C)nc2c1cnn2C(C)C (centres undefined)
[3]
  selectivity ratio: > 100
[7]
  selectivity ratio: > 100

## CCN(CC)CCCNC(=O)c1cc(C2CC2)nc2c1cnn2C(C)C
[1]
  CC50: 43.8 µM

## Cc1nn(C(C)(C)C)c2nc(C3CC3)cc(C(=O)NCCN(C)C)c12
[2]
  CC50 at 72 h: 45.2 µM

## CC(CN)NC(=O)c1cc(C(C)C)nc2c1cnn2C(C)C (centres undefined)
[2]
  CC50 at 72 h: 118 µM

## CC(C)c1cc(C(=O)NCCN)c2cnn(C(C)C)c2n1
Enterovirus D68 [4]
  EC50: 0.6 µM
[2]
  CC50 at 72 h: 170 µM

## CC(CN(C)C)NC(=O)c1cc(C2CC2)nc2c1cnn2C(C)C (centres undefined)
[6]
  selectivity ratio: > 7500
[2]
  CC50 at 72 h: 72.6 µM

## CNCCNC(=O)c1cc(C2CC2)nc2c1cnn2C(C)C
[1]
  CC50: 236 µM
Enterovirus D68 [8]
  EC50: 0.2 µM
Coxsackievirus B3
  EC50: 0.2 µM
[6]
  selectivity ratio: > 500
[9]
  CC50: 236 µM
[10]
  CC50: 236 µM
Enterovirus D68 [11]
  EC50: 0.077 µM
Enterovirus D68 [5]
  EC50: 0.2 µM
Enterovirus D68 [12]
  EC50: 0.2 µM
[2]
  CC50 at 72 h: 236 µM
Enterovirus D68 [13]
  EC50: 0.2 µM
Enterovirus A71 [14]
  EC50: 0.2 µM
Enterovirus
  EC50: 0.07 µM

## CCn1ncc2c(C(=O)NCCNC)cc(C)nc21
[3]
  selectivity ratio: > 5.1
[2]
  CC50 at 72 h: > 300 µM

## CNCCNC(=O)c1cc(C)nc2c1cnn2C(C)C
[6]
  selectivity ratio: > 214
[3]
  selectivity ratio: > 130
[7]
  selectivity ratio: > 600

## CCn1ncc2c(C(=O)NCCN(C)C)cc(C)nc21
[3]
  selectivity ratio: > 16.4
[2]
  CC50 at 72 h: > 300 µM

## Cc1cc(C(=O)NCCN)c2cnn(C(C)C)c2n1
[6]
  selectivity ratio: > 78.9
[3]
  selectivity ratio: > 63.8
[7]
  selectivity ratio: > 429

## CC(CN)NC(=O)c1cc(C2CC2)nc2c1cnn2C(C)C (centres undefined)
[1]
  CC50: 113 µM
Enterovirus D68 [4]
  EC50: 0.3 µM

## CC(C)n1ncc2c(C(=O)NCCN3CCCC3)cc(C3CC3)nc21
[2]
  CC50 at 72 h: 46.5 µM
Enterovirus A71 [14]
  EC50: 0.2 µM

## CC(C)n1ncc2c(C(=O)NCCCN(C)C)cc(C3CC3)nc21
[1]
  CC50: 74.1 µM
[6]
  selectivity ratio: > 500

## CNCCNC(=O)c1cc(C(C)C)nc2c1cnn2C(C)C
[3]
  selectivity ratio: > 250
[7]
  selectivity ratio: > 1000

## Cc1cc(C(=O)NCCN(C)C)c2cnn(C(C)C)c2n1
[1]
  CC50: 112 µM
[6]
  selectivity ratio: > 1500

## CC(C)c1cc(C(=O)NCCO)c2cnn(C(C)C)c2n1
[3]
  selectivity ratio: > 10.2
[2]
  CC50 at 72 h: > 100 µM

## CC(C)n1ncc2c(C(=O)NCCN(C)C)cc(C3CC3)nc21
[1]
  CC50: 200 µM
[9]
  CC50: 200 µM
Enterovirus D68 [11]
  EC50: 0.025 µM
[15]
  CC50: 200 µM
Enterovirus D68 [5]
  EC50: 0.07 µM
Enterovirus D68 [12]
  EC50: 0.04 µM
Enterovirus D68 [16]
  EC50: 1.9 µM
[2]
  CC50 at 72 h: 200 µM
Enterovirus D68 [13]
  EC50: 0.1 µM
Enterovirus A71 [17]
  EC50: 0.1 µM

## CCCn1ncc2c(C(=O)NCCN(C)C)cc(C3CC3)nc21
[2]
  CC50 at 72 h: 57.7 µM
Enterovirus A71 [14]
  EC50: 2 µM

## CC(C)n1ncc2c(C(=O)NCCN(C)C)cc(C(C)(C)C)nc21
[2]
  CC50 at 72 h: 31.4 µM

## Cc1cc(C(=O)NC2CCN(C)C2)c2cnn(C(C)C)c2n1 (centres undefined)
[6]
  selectivity ratio: > 375
[3]
  selectivity ratio: > 167
[7]
  selectivity ratio: > 600

## CCN(CC)CCNC(=O)c1cc(C2CC2)nc2c1cnn2C(C)C
[1]
  CC50: 89.9 µM

## CN(C)CCNC(=O)c1cc(C2CC2)nc2c1cnn2C
[3]
  selectivity ratio: > 30.6
[2]
  CC50 at 72 h: > 300 µM

## Cc1cc(C(=O)NCCN(C)C)c2c(C)nn(C(C)(C)C)c2n1
Coxsackievirus B3
  EC50: 2.1 µM
[9]
  CC50: 117 µM
[10]
  CC50: 117 µM
Enterovirus D68 [11]
  EC50: 0.13 µM
[15]
  CC50: 117 µM
Enterovirus D68 [5]
  EC50: 0.4 µM
[18]
  selectivity ratio: 89.7
Enterovirus D68 [13]
  EC50: 0.7 µM
[19]
  selectivity ratio: 58.3
Enterovirus
  EC50: 0.34 µM

## CCn1ncc2c(C(=O)NCCN(C)C)cc(C3CC3)nc21
[1]
  CC50: 263 µM
[6]
  selectivity ratio: > 167

## CC(C1CC1)n1ncc2c(C(=O)NCCN(C)C)cc(C3CC3)nc21 (centres undefined)
[1]
  CC50: 28.4 µM

## CC(C)n1ncc2c(C(=O)NCCN)cc(C(C)(C)C)nc21
[2]
  CC50 at 72 h: 24.6 µM

## CC(C)n1ncc2c(C(=O)NCCN)cc(C3CC3)nc21
[1]
  CC50: 259 µM
Enterovirus A71 [14]
  EC50: 0.4 µM

## CC(C)c1cc(C(=O)NCCN(C)C)c2cnn(C(C)C)c2n1
[1]
  CC50: 161 µM
Enterovirus D68 [8]
  EC50: 0.07 µM
[6]
  selectivity ratio: > 7500
[9]
  CC50: 161 µM
[10]
  CC50: 161 µM
Enterovirus D68 [11]
  EC50: 0.023 µM
[15]
  CC50: 161 µM
Enterovirus D68 [12]
  EC50: 0.03 µM
Enterovirus
  EC50: 0.03 µM
